Data set [1] has as its system CD34+ cells from normal aged bone marrow. Nature of the data set: SL/M2 stromal co-culture with colony and replating assays, normal bone marrow. In kind it is cell-based, human. As to conditions: normal aged bone marrow samples. Here is the method:
(§1) In hypothesis-driven experiments, the splicing modulatory compound 17S-FD-895 was tested to determine efficacy in altering splicing activity in cell lines, and to evaluate effects on AML LSC survival and self-renewal capacity in humanized bone marrow stromal co-cultures and in PRIMAGRAFT™ AML LSC models. Cell culture experiments were performed using 293T and sAML (MOLM-13) cell lines, and SL and M2 bone marrow stromal cell lines. Animal studies were performed using immunocompromised Rag2−/−γc−/−[20] or NOD/SCID-IL2RG mice (Jackson Laboratory, Bar Harbor, Me.). Primary AML and normal control samples were used in in vitro hematopoietic stem and progenitor assays after bone marrow stromal co-culture and treatment with splicing modulatory compounds (FD-895 or 17S-FD-895) or vehicle control (DMSO). Colony formation potential and self-renewal capacity were assessed by counting colony numbers (survival) after two weeks of growth in semi-solid (methylcellulose) media, and subsequent replating capacity (self-renewal) was assessed after transfer to fresh methylcellulose for an additional two weeks of culture. Three primary AML samples were utilized to establish PRIMAGRAFT™ models in immunocompromised mice, and mice engrafted with cells from two of these models (AML-37 and AML-08) were treated with 17S-FD-895 or vehicle (DMSO) to evaluate changes in AML LSC survival and self-renewal capacity in vivo. Data were collected by flow cytometry and qRT-PCR analysis of CD34-selected human LSC-enriched cells from engrafted mice.
Bone marrow SL/M2 monolayers were established from freshly inactivated (irradiated) cells and then human CD34^+ cells selected from AML primary samples (n=8) and normal controls (CD34^+ cells from cord blood, CB, n=6; or aged bone marrow, n=6) were added. Survival and self-renewal of the CD34+ cells were investigated by methylcellulose-based colony and replating assays. Two SF3B1-targeted splicing modulators, FD-895 or 17S-FD-895, were added at the initiation of co-culture at concentrations ranging from 0.1 to 10 μM.
As previously described (Goff et al., 2013), humanized bone marrow SL/M2 monolayers were inactivated (irradiated) and then human CD34^+ cells selected from AML primary samples and normal controls were added for two weeks of co-culture, followed by methylcellulose-based colony and replating assays. FD-895 or 17S-FD-895 were added at the initiation of co-culture, with DMSO as a vehicle control.

Data set [2] relates to human CD34+ cell fractions from spleens and bone marrow of AML-37 engrafted mice. Briefly: RNA-Seq of human CD34+ cells pooled from spleens and bone marrow of treated sAML-engrafted mice. Format: in vivo. How it is done: In vivo molecular response to therapeutic splicing modulation. RNA-seq analysis was performed in human CD34+ cell fractions isolated from spleens and bone marrow of 17S-FD-895-treated sAML-engrafted mice. […] The data are set forth in Table 4 following, which formed the basis for calculation of FIG. 17G.
Xenograft sequencing data of 2×150 bp paired end reads were trimmed using cutadapt 1.8.1, aligned using STAR 2.5.0b against the GRCh37 reference FASTA sequence with the Ensembl GRCh37.75 GTF as a splice junction source. Strandedness was inferred using modulate “infer_experiment.py” from the RSeQC package (Wang et al., 2012). Then, transcripts were quantified using Cufflinks v2.2.1 (Trapnell et al., 2010) against the Ensembl GRCh37.75 GTF reference with bias correction against the GRCh37 reference FASTA. This yielded Cufflinks FPKM values. Isoforms sharing gene names were summed to yield gene FPKMs. FPKM values were transformed to generate log 2(FPKM+1) for all transcripts in the sAML isoform signature (FIGS. 11D, 11E, 12D), comparing vehicle versus 10 mg/kg treatment groups for spleen and bone marrow. Then, a heatmap was generated using all transcripts showing a L2FC>0.5 in both tissues, occurring in the opposite direction of the L2FC transcript expression values in sAML versus normal age-matched controls (i.e. L2FC>1 in sAML, L2FC<−0.5 in 10 mg/kg-treated spleen and bone marrow).
Gene expression data in FPKM was submitted to GSEA to determine significant KEGG pathways, and enrichment plots describing ranked gene expression in those pathways. Additional analyses were performed using custom gene sets including genes associated with the top differentially expressed transcript signatures in aged (“aged up”) versus young (“young up”) HPC and sAML (“sAML up”) versus aged (“aged up”) HPC (FIGS. 11D, 11E, 12D). We acknowledge our use of the gene set enrichment analysis, GSEA software, and Molecular Signature Database (see website: broad.mit.edu). […]

For data set [3], the system named is CD34+ cells from normal cord blood. Briefly: SL/M2 stromal co-culture with colony and replating assays, cord blood. As to conditions: even at high doses. Format: cell-based, human. How it is done: as §1, with “Three primary AML samples were utilized to establish PRIMAGRAFT™ models in immunocompromised mice, and mice engrafted with cells from two of these models (AML-37 and AML-08) were treated with 17S-FD-895 or vehicle (DMSO) to evaluate changes in AML LSC survival and self-renewal capacity in vivo. Data were collected by flow cytometry and qRT-PCR analysis of CD34-selected human LSC-enriched cells from engrafted mice.” left out

One molecule from patent publication US10675267B2, “Methods for detection and eradication of myeloid leukemia stem cells” (priority 2015, dated 2020) can be followed below.

Structures are written as SMILES. Entries after “also recorded” stand apart in the source; their conditions may differ.

`CC[C@H](OC)[C@@H](C)[C@H]1O[C@@H]1[C@@H](O)[C@H](C)/C=C/C=C(\C)[C@H]1OC(=O)C[C@H](O)CC[C@@](C)(O)[C@@H](OC(C)=O)/C=C/[C@@H]1C` (stereo in doubt) [Formula 17S-FD-895, 17S-FD-895]: in data set [1], the “erythroid colony formation and self-renewal” value is “not significantly changed; also recorded: no effect on erythroid colonies”; the “granulocyte-macrophage (myeloid) colony survival” value is recorded as “slight decrease; also recorded: reduces myeloid colony formation”. For the same molecule, in data set [2] (10 mg/kg treated mice versus vehicle), the “GSEA of the “aged up” signature” value is listed as “enriched”. In addition, the “expression of sAML-specific transcripts STAT6-016 and ITGB2-201” value in data set [2] (higher treatment doses, bone marrow and spleen) was “reverted to a normal expression pattern”. The PTK2B transcripts result in data set [2] (spleen and bone marrow, after treatment) was “decreased”. The “normal CB samples, survival and self-renewal” value in data set [3] is listed as “unaffected”.
